Common to all, as to experiment: stopped-flow CO2 hydration assay
What all share (type): biochemical

Assay [1] concerns the target T1, hCA IX (Homo sapiens, UniProt Q16790).
T1 construct: gene CA9; recombinant, obtained in-house
The following applies: read-out: KI (nM)* / CA IX. An excerpt: stopped-flow CO2 hydration assay on hCA IX

Assay [2] has as its target T2, hCA II (Homo sapiens, UniProt P00918).
T2 construct: gene CA2; recombinant, obtained in-house
The following applies: read-out: KI (nM)* / CA II (converted). An excerpt: stopped-flow CO2 hydration assay on hCA II

In assay [3] the target is T3, hCA I (Homo sapiens, UniProt P00915).
T3 construct: gene CA1; recombinant, obtained in-house
T3 sequence (P00915 2-261): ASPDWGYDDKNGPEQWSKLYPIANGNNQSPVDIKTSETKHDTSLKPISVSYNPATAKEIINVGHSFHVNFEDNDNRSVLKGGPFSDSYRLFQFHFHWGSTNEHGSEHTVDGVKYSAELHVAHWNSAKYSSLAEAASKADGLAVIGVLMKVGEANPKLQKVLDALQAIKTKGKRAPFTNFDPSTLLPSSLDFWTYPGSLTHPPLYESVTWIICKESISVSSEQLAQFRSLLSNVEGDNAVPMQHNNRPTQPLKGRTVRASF
The following applies: read-out: KI (nM)* / CA I (converted). From the text:
stopped-flow CO2 hydration assay on hCA I

The target of assay [4] is T4, hCA XII (Homo sapiens, UniProt O43570).
T4 construct: gene CA12; recombinant, obtained in-house
T4 sequence (O43570 25-354 limits assumed): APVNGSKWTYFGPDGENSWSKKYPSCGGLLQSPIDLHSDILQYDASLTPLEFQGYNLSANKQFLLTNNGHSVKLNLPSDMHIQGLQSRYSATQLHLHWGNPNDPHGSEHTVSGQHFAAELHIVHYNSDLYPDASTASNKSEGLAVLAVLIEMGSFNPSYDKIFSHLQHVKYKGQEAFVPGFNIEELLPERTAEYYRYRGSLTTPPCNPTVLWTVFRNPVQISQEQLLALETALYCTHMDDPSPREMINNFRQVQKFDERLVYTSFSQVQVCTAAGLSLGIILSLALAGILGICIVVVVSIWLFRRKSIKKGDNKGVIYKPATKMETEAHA
The following applies: read-out: KI (nM)* / CA XII. From the text:
stopped-flow CO2 hydration assay on hCA XII

For `O=C1CN(/N=C/C=C/c2ccc([N+](=O)[O-])o2)C(=O)N1` [Furagin], the Ki in assay [1] was 260 nM; in assay [2] it was 9600 nM; in assay [3], over 100000 nM; in assay [4] it was 57 nM.
For `O=C1CN(N=Cc2ccccc2)C(=O)N1` [compound 2, 1-(Benzylideneamino)-imidazolidine-2,4-dione], in that order: 3500 nM, 900 nM, 39600 nM and 5600 nM.
The like results for `COc1ccc(C=NN2CC(=O)NC2=O)cc1` [compound 3, 1-((4-Methoxybenzylidene)amino)imidazolidine-2,4-dione] were, in that order, 1200 nM, 6400 nM, 57600 nM and 4700 nM.
For `O=C1CN(N=Cc2ccc([N+](=O)[O-])cc2)C(=O)N1` [compound 4, 1-((4-Nitrobenzylidene)amino)imidazolidine-2,4-dione], in that order: 7400 nM, 11100 nM, over 100000 nM and 2800 nM.
With `COC(=O)c1ccc(C=NN2CC(=O)NC2=O)cc1` [compound 5, Methyl 4-(((2,4-dioxoimidazolidin-1-yl)imino)methyl)benzoate], the Ki was 4900 nM in assay [1], 8300 nM in assay [2], over 100000 nM in assay [3] and 930 nM in assay [4].
With `O=C1CN(N=CCCCC=NN2CC(=O)NC2=O)C(=O)N1` [compound 6, 1,1’-((Pentane-1,5-diylidene)bis(azaneylylidene))bis(imidazolidine-2,4-dione)], the Ki in assay [1] was 1100 nM; in assay [2] it was 4000 nM; in assay [3], 19100 nM; in assay [4], 160 nM.
Consider `O=C1CN(N=Cc2ccoc2)C(=O)N1` [compound 7, 1-((Furan-3-ylmethylene)amino)imidazolidine-2,4-dione], for which the Ki was 850 nM in assay [1], 710 nM in assay [2], 16800 nM in assay [3] and 1700 nM in assay [4].
The like results for `O=C1CN(N=Cc2ccc(OCc3ccccc3)cc2)C(=O)N1` [compound 8, 1-((4-(Benzyloxy)benzylidene)amino)imidazolidine-2,4-dione] were, in that order, 350 nM, 540 nM, over 100000 nM and 910 nM.
The like results for `CCOC(=O)/C=C/C=NN1CC(=O)NC1=O` [compound 9, Ethyl (2E)-4-((2,4-dioxoimidazolidin-1-yl)imino)but-2-enoate] were, in that order, 810 nM, 23600 nM, 45900 nM and 440 nM.
For `CC(C)=CC=NN1CC(=O)NC1=O` [compound 10, 1-((3-Methylbut-2-en-1-ylidene)amino)imidazolidine-2,4-dione], in that order: 2900 nM, 16500 nM, 28800 nM and 880 nM.
Take `COc1ccc(/C=C/C=NN2CC(=O)NC2=O)cc1` [compound 11, 1-(((2e)-3–(4-methoxyphenyl)allylidene)amino)imidazolidine-2,4-dione]: the Ki in assay [1] was 400 nM; in assay [2], 3100 nM; in assay [3], over 100000 nM; in assay [4] it was 360 nM.
For `O=C1CN(N=Cc2ccc(O)cc2O)C(=O)N1` [compound 12, 1-((2,4-Dihydroxybenzylidene)amino)imidazolidine-2,4-dione], in that order: 5800 nM, 59900 nM, over 100000 nM and 150 nM.
For `O=C1CN(N=Cc2ccc(B(O)O)cc2)C(=O)N1` [compound 13], in that order: 7300 nM, 14200 nM, 90700 nM and 230 nM.
Take `O=C1CN(N=Cc2ccccn2)C(=O)N1` [compound 14, 1-((Pyridin-2-ylmethylene)amino)imidazolidine-2,4-dione]: the Ki in assay [1] is 4500 nM; in assay [2], 4200 nM; in assay [3] it was 51800 nM; in assay [4], 1300 nM.
Regarding `O=C1CN(N=Cc2cccnc2)C(=O)N1` [compound 15, 1-((Pyridin-3-ylmethylene)amino)imidazolidine-2,4-dione], the Ki in assay [1] was 2300 nM; in assay [2], 620 nM; in assay [3], 45600 nM; in assay [4], 3200 nM.
For `O=C1CN(N=Cc2ccncc2)C(=O)N1` [compound 16, 1-((Pyridin-4-ylmethylene)amino)imidazolidine-2,4-dione], in that order: 1600 nM, 3300 nM, 26600 nM and 810 nM.
For `O=C1CN(N=Cc2cnc[nH]2)C(=O)N1` [compound 17, 1-(((1 h-Imidazol-5-yl)methylene)amino)imidazolidine-2,4-dione], the Ki was 560 nM in assay [1], 12400 nM in assay [2], 9600 nM in assay [3] and 350 nM in assay [4].
